Assay results reported in patent US4760085A, “Use of D,L-and D-carazolol as anti-glaucoma agent” (Boehringer Mannheim GmbH, priority 1983, dated 1988).
Like-named read-outs stand apart in the source and are kept apart here.

Columns and labels:
[1] = system: intraocular pressure in water loaded rabbits; experiment: Intraocular pressure reduction in water loaded conscious rabbits; type: in vivo; conditions: one drop of 0.05% solution; for Reduction of the intraocular pressure in water loaded rabbits after administration of 0.05% solution: conscious rabbits, water loading
Description: For measurement of an intraocular pressure-reducing effect the intraocular pressure in some test animals (rabbits) were increased by means of water loading (Method: Th. McDonalds et al in Arch. Ophtal. 82, p. 381, 1969). Thereafter the influence of one drop of a 0,05% solution of D,L-carazolol respectively the enantiomeres thereof were measured.

[2] = system: tachycardic effect of 1 mcg/kg i.v. Isoprenaline (β-blocking); experiment: β-blocking activity: inhibition of isoprenaline-induced tachycardia in conscious rabbits; type: in vivo; conditions: for ED50: Oryctolagus cuniculus, iv, read-out: β-blocking activity ID50 (inhibition dose 50% of the tachycardic effect of 1 mcg/kg i.v. Isoprenaline)
Description: D,L-Carazolol, D-carazolol and L-carazolol were tested in respect to a β-blocking and intraocular pressure-reducing activity. The β-blocking activity was measured by means of a tachycardic effect caused by 1 μg/kg i.v. isoprenaline (Dr. Bartsch et al in Drug Research 27 (I), 5, p. 1022 et seq (1977).

[3] = system: internal eye pressure in glaucoma patients; experiment: Lowering of internal eye pressure in humans (glaucoma patients), eye drops; type: in vivo
Description: (§1) For this purpose, patients were treated once per day with D,L-carazolol eye drops.

glaucoma patients [4] = experiment: Compatibility / side effects of eye drops in humans; type: in vivo
Description: as §1

[5] = system: internal pressure of the eye; experiment: Experiments on lowering of the internal pressure of the eye (species not stated); type: in vivo
[6] = Side effects observed in the experiments (species not stated); type: in vivo
β-blocking action [7] = conditions: humans and animals; cited from earlier work
β-blocking action [8] = conditions: Circ. Res., 49, 326-336/1981; cited from earlier work
glaucoma patients [9] = conditions: cited from earlier work
[10] = system: pressure of the eye in glaucoma patients; conditions: glaucoma patients (Krieglstein 1978); cited from earlier work
[11] = 0.01% solution of D,L-carazolol
[12] = D-carazolol, concentration not given

SMILES: CC(C)NCC(O)COc1cccc2[nH]c3ccccc3c12 (racemic) [D,L-Carazolol, (D,L)-1-carbazolyl-(4)-oxy-3-isopropylaminopropan-2-ol]
- Reduction of the intraocular pressure in water loaded rabbits after administration of 0.05% solution [1]: 12%
- ED50 [2]: 3 µg/kg
- β-blocking activity (in words) ([2]; isoprenaline tachycardia): good β-blocking activity
- lowering of internal eye pressure ([3]; glaucoma patients, D,L-carazolol eye drops once per day, 0.005 to 0.03%): significantly lower the internal eye pressure in glaucoma patients
- known side effects (anaesthetised feeling in the eye or head region, strong burning sensation) (glaucoma patients [4]; humans, 0.01% solution): did not give rise to any of the known side effects
- compatibility (glaucoma patients [4]; humans, eye drops): good compatibility
- lowering of the inner pressure of the eye [5, 11]: significant lowering of the inner pressure of the eye
- undesired side effects [6, 11]: without any undesired side effects being observed
- β-blocking action (β-blocking action [7]): outstanding β-blocking action

SMILES: CC(C)NC[C@@H](O)COc1cccc2[nH]c3ccccc3c12 [D-Carazolol, R(+)-1-carbazolyl-(4)-oxy-3-isopropylaminopropan-2-ol]
- Reduction of the intraocular pressure in water loaded rabbits after administration of 0.05% solution [1]: 21%
- intraocular pressure-reducing activity (in words) ([1]; water loaded rabbits): most effective compound
- ED50 [2]: 222 µg/kg
- lowering of internal eye pressure ([3]; D-carazolol and salts thereof): significant lowering of the internal eye pressure
- side effects (glaucoma patients [4]; D-carazolol and salts thereof): in no case were side effects observed
- lowering of the internal pressure of the eye [5, 12]: significant lowering of the internal pressure of the eye
- systemic side effects typical of β-blockers [6, 12]: without the occurrence of systemic side effects which are typical of β-blockers
- β-blocking action (β-blocking action [8]): no such action was ascertained

SMILES: CC(C)NC[C@H](O)COc1cccc2[nH]c3ccccc3c12 [L-Carazolol]
- Reduction of the intraocular pressure in water loaded rabbits after administration of 0.05% solution [1]: 5%
- ED50 [2]: 1.6 µg/kg

SMILES: CC(C)(C)NC[C@H](O)COc1nsnc1N1CCOCC1 [Timolol, S-(-)-1-(tert.-butylamino)-3-[(4-morpholino-1,2,5-thiadiazol-3-yl)-oxy]-propan-2-ol]
- rare but very serious incidents as a result of the β-blockade (glaucoma patients [9]; after administration of timolol (Vonwil et al. 1981)): asthmatic attacks, heart rhythm disturbances and even some fatal cases
- side effects in glaucoma therapy (glaucoma patients [9]; commercially available 0.5% solution, especially long-term therapy (Nielsen 1981)): significant lowering of the blood pressure and the development of dry eyes

SMILES: CC(C)NCC(O)COc1cccc2ccccc12 (stereo not shown) [propranolol]
- reduction of the pressure of the eye [10]: can reduce the pressure of the eye in glaucoma patients
